For this assay, the system named is Acinetobacter baumannii ATCC 17961. The assay is described as follows: Antimicrobial susceptibility testing: 90% growth inhibitory concentration (IC90) determination. It is filed as cell-based. In a few lines:
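Broth microdilution in Iso-Sensitest medium, twofold series (e.g. 50 to 0.097 μM final), ~5×10^5 CFU/ml inoculum, 35±2 °C. OD600 read every 20 min over 16 h. IC90 derived from growth inhibition during logarithmic phase.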

Setting [1] is: ATCC17961, Acinetobacter baumannii ATCC 17961, Iso-Sensitest broth, read-out: ATCC 17961 IC90.

Structures can show the parent of a compound that is named as a salt. Where two headings read alike, the source gives them in different places.

Our source for the IC90 values is patent US11390604B2 (Hoffmann-La Roche Inc., priority 2019, dated 2022).

What is called IC90 is the point of the concentration-response curve where the effect stands at 90%.

As for `C/C=C/Cn1cc(-c2cnc(C(=O)Nc3ccc(C(=O)N4CCN(C(=O)C5CCNCC5)CC4)c(Cl)c3)n2C)c(C(F)(F)F)n1` [Example 312, (E)-5-(1-(but-2-en-1-yl)-3-(trifluoromethyl)-1H-pyrazol-4-yl)-N-(3-chloro-4-(4-(piperidine-4-carbonyl)piperazine-1-carbonyl)phenyl)-1-methyl-1H-imidazole-2-carboxamide hydrochloride], the 90% effect concentration (IC90) under setting [1] is 0.385 µM.
On the same count and under the same terms, with `Cn1c(-c2cn(CC(F)F)nc2C(F)(F)F)cnc1C(=O)Nc1ccc(C(=O)N2CCN(C(=O)[C@H]3[C@@H]4CNC[C@@H]43)CC2)c(F)c1` [Example 213, rac-N-(4-(4-((1R,5S,6r)-3-azabicyclo[3.1.0]hexane-6-carbonyl)piperazine-1-carbonyl)-3-fluorophenyl)-5-(1-(2,2-difluoroethyl)-3-(trifluoromethyl)-1H-pyrazol-4-yl)-1-methyl-1H-imidazole-2-carboxamide] the figure was 0.24 µM.
For `Cn1c(-c2cn(CC3CC(F)(F)C3)nc2C(F)(F)F)cnc1C(=O)Nc1ccc(C(=O)N2CCN(C(=O)N[C@H]3C[C@@H](N)C3)CC2)c(Cl)c1` [Example 293, rac-N-((1s,3s)-3-aminocyclobutyl)-4-(2-chloro-4-(5-(1-((3,3-difluorocyclobutypmethyl)-3-(trifluoromethyl)-1H-pyrazol-4-yl)-1-methyl-1H-imidazole-2-carboxamido)benzoyl)piperazine-1-carboxamide hydrochloride], the IC90 (Acinetobacter baumannii, ATCC17961, read-out: ATCC 17961 IC90, Acinetobacter baumannii ATCC 17961, Iso-Sensitest broth) worked out at 0.363 µM.
Take `Cn1c(-c2cn(C3CCC3)nc2C(F)(F)F)cnc1C(=O)Nc1ccc(C(=O)N[C@H]2[C@@H]3CN(C(=O)C4CCNCC4)C[C@@H]32)c(Cl)c1` [Example 173, N-(3-chloro-4-(((1R,5S,6s)-3-(piperidine-4-carbonyl)-3-azabicyclo[3.1.0]hexan-6-yl)carbamoyl)phenyl)-5-(1-cyclobutyl-3-(trifluoromethyl)-1H-pyrazol-4-yl)-1-methyl-1H-imidazole-2-carboxamide formate]: under setting [1], the IC90 came to 0.234 µM.
Same read-out and setting: with `CCc1cc(NC(=O)c2ncc(-c3cn(CC#N)nc3C(F)(F)F)n2C)ccc1C(=O)N1CCN(C(=O)N2CCCC2CN)CC1` (stereo not shown) [Example 139, N-[4-[4-[2-(aminomethyl)pyrrolidine-1-carbonyl]piperazine-1-carbonyl]-3-ethylphenyl]-5-[1-(cyanomethyl)-3-(trifluoromethyl)pyrazol-4-yl]-1-methylimidazole-2-carboxamide;formic acid] the figure was 1.16 µM; with `Cn1c(-c2cn(C3CC3)nc2C(F)(F)F)cnc1C(=O)Nc1ccc(C(=O)N2CCC(N3CCC(O)CC3)CC2)c(Cl)c1` [Example 370], 0.485 µM; with `Cn1c(-c2cn(CF)nc2C(F)(F)F)cnc1C(=O)Nc1ccc(C(=O)N2CCN(C(=O)C3CCNCC3)CC2)c(Cl)c1` [Example 99, N-[3-chloro-4-[4-(piperidine-4-carbonyl)piperazine-1-carbonyl]phenyl]-5-[1-(fluoromethyl)-3-(trifluoromethyl)pyrazol-4-yl]-1-methylimidazole-2-carboxamide;hydrochloride], 0.403 µM.
With `Cn1c(-c2cn(C3CC3(F)F)nc2C(F)(F)F)cnc1C(=O)Nc1ccc(C(=O)N[C@H]2[C@@H]3CN(C(=O)N4CCNCC4)C[C@@H]32)c(Cl)c1` (stereo partly drawn) [Example 184, N-(3-chloro-4-(((1R,5S,6s)-3-(piperazine-1-carbonyl)-3-azabicyclo[3.1.0]hexan-6-yl)carbamoyl)phenyl)-5-(1-(2,2-difluorocyclopropyl)-3-(trifluoromethyl)-1H-pyrazol-4-yl)-1-methyl-1H-imidazole-2-carboxamide], the IC90 under setting [1] amounted to 0.136 µM.
On to `Cn1c(-c2cn(C3CC3(F)F)nc2C(F)(F)F)cnc1C(=O)Nc1ccc(N2CCCC2=O)cc1` (stereo not shown) [Example 204, 5-(1-(2,2-difluorocyclopropyl)-3-(trifluoromethyl)-1H-pyrazol-4-yl)-1-methyl-N-(4-(2-oxopyrrolidin-1-yl)phenyl)-1H-imidazole-2-carboxamide], for which the IC90 under setting [1] was found to be 0.223 µM.
On the same count and under the same terms, next, `Cn1c(-c2c[nH]nc2C(F)(F)F)cnc1C(=O)Nc1ccc(S(=O)(=O)N2CCN(C(=O)[C@@H]3C[C@@H](O)CN3)CC2)c(Cl)c1` [Example 59, N-(3-Chloro-4-((4-((2S,4R)-4-hydroxypyrrolidine-2-carbonyl)piperazin-1-yl)sulfonyl)phenyl)-1-methyl-5-(3-(trifluoromethyl)-1H-pyrazol-4-yl)-1H-imidazole-2-carboxamide Hydrochloride]: 0.823 µM; `C#CCn1cc(-c2cnc(C(=O)Nc3ccc(C(=O)NCCOCCN)c(CC)c3)n2C)c(C(F)(F)F)n1` [Example 242, N-[4-[2-(2-aminoethoxy)ethylcarbamoyl]-3-ethyl-phenyl]-1-methyl-5-[1-prop-2-ynyl-3-(trifluoromethyl)pyrazol-4-yl]imidazole-2-carboxamide; formic acid]: 0.283 µM.
Still for that read-out and setting: next, `CCc1cc(NC(=O)c2ncc(-c3cn(CC(F)F)nc3C(F)(F)F)n2C)ccc1C(=O)N1CCN(C(=O)C2CCN(C)CC2)CC1` [Example 152, 5-[1-(2,2-difluoroethyl)-3-(trifluoromethyl)pyrazol-4-yl]-N-[3-ethyl-4-[4-(1-methylpiperidine-4-carbonyl)piperazine-1-carbonyl]phenyl]-1-methylimidazole-2-carboxamide]: 1.17 µM.
On the same count and under the same terms, next, `Cn1c(-c2cn(C3C=C(F)C3)nc2C(F)(F)F)cnc1C(=O)Nc1ccc(C(=O)N[C@H]2[C@@H]3CN(C(=O)C4CCNCC4)C[C@@H]32)c(Cl)c1` (stereo partly drawn) [Example 259, N-(3-chloro-4-(((exo)-3-(piperidine-4-carbonyl)-3 azabicyclo[3.1.0]hexan-6-yl)carbamoyl)phenyl)-5-(1-(3-fluorocyclobut-2-en-1-yl)-3-(trifluoromethyl)-1H-pyrazol-4-yl)-1-methyl-1H-imidazole-2-carboxamide formate]: 0.314 µM.
With `Cn1c(-c2cn(CC(F)F)nc2C(F)F)cnc1C(=O)Nc1ccc(C(=O)N2CCN(C(=O)[C@H]3[C@@H]4CNC[C@@H]43)CC2)c(Cl)c1` [Example 364, N-(4-(4-((1R,5S,6r)-3-azabicyclo[3.1.0]hexane-6-carbonyl)piperazine-1-carbonyl)-3-chlorophenyl)-5-(1-(2,2-difluoroethyl)-3-(difluoromethyl)-1H-pyrazol-4-yl)-1-methyl-1H-imidazole-2-carboxamide formate], under setting [1], the concentration for an effect of 90% (IC90) turned out to be 0.482 µM.
Still for that read-out and setting: with `C#CCn1cc(-c2cnc(C(=O)Nc3ccc(C(=O)NC[C@@H]4CNC[C@@H]4O)c(Cl)c3)n2C)c(C(F)(F)F)n1` [Example 33, N-(3-chloro-4-((((3S,4R)-4-hydroxypyrrolidin-3-yl)methyl)carbamoyl)phenyl)-1-methyl-5-(1-(prop-2-yn-1-yl)-3-(trifluoromethyl)-1H-pyrazol-4-yl)-1H-imidazole-2-carboxamide hydrochloride] the figure was 0.925 µM.
Still for that read-out and setting: next, `Cn1c(-c2cn(C3CC3(F)F)nc2C(F)(F)F)cnc1C(=O)Nc1ccc(C(=O)N[C@H]2[C@@H]3CN(C(=O)N[C@@H]4CCC[C@@H]4N)C[C@@H]32)c(Cl)c1` (mixture of isomers) [Example 186, cis-N-[(1R,2S)-2-aminocyclopentyl]-6-[[2-chloro-4-[[5-[1-(2,2-difluorocyclopropyl)-3-(trifluoromethyl)pyrazol-4-yl]-1-methylimidazole-2-carbonyl]amino]benzoyl]amino]-3-azabicyclo[3.1.0]hexane-3-carboxamide, formate salt]: 0.15 µM.
